According to patent US20160015786A1, “MOBILIZING AGENTS AND USES THEREFOR” (MATER MEDICAL RESEARCH INSTITUTE LIMITED, priority 2013, published 2016):

Legend:
[1] = tested on: colony-forming cells (CFCs); experiment: Mobilization of colony-forming cells (CFC/CFU) to blood and spleen, colony assays; format: in vivo, C57BL/6 mice
Experimental: Mobilization of colony-forming cells (CFCs) to the blood and spleen were measured (FIG. 1B).
This was divided into two experiments in which G-CSF was administered for 2 days in one experiment and 4 days in the other (FIG. 2). […] Mobilization of CFCs, phenotypic Lin^−CD41^−Sca1^+Kit^+ HSPCs and Lin^−CD41^− Sca1^+Kit^+CD48^−CD150^+ HSCs were measured in blood and spleens.
Additional HIF-α potentiating agents in the form of PHD inhibitors were tested for their ability to enhance mobilization induced by G-CSF.
(§1) At the end of treatment, blood was harvested by cardiac puncture, mice were sacrificed by cervical dislocation and spleens harvested. Femurs were removed, cleaned and the bone marrow was flushed with 1 mL PBS+10% newborn calf serum (NCS).
The number of phenotypic hematopoietic stem and progenitor cells remaining in the bone marrow following treatment was measured by flow cytometry using antibodies specific for lineage markers (CD3, CD5, CD45R/B220, F4/80, Gr1, CD41, Ter119), Sca-1, Kit, CD48 and CD150. Similarly, the number of phenotypic hematopoietic stem cells mobilized into the blood and spleen were measured. Colony assays were also performed on blood and spleen to determine the number of colony forming cells per mL of blood and per spleen. […] Levels of significance for differences were calculated using the Student's t-test.
All procedures were approved by the animal experimentation ethics committee of the University of Queensland. […] Plerixafor (AMD3100 octohydrochloride, Tocris Bioscience, Bristol, UK) was injected intraperitoneally as a single 16 mg/kg dose corresponding to 10 mg/kg of AMD3100 base. Tissues were harvested 1 h after Plerixafor administration. […] Control mice were injected with an equivalent volume of saline. At specified time-points, mice were anesthetized with isoflurane before cardiac puncture to harvest blood. Mice were then euthanized by cervical dislocation and BM and bones harvested.
Optimal concentrations of mouse IL-3, IL-6 and soluble kit ligand were added as conditioned media from stably transfected BHK cell lines. Colonies were counted after 7 days culture at 37° C. in a humidified incubator containing 5% CO2.

CD34+ cells = conditions: cited from earlier work
[2] = tested on: colony-forming cells (CFCs); conditions: Plerixafor; reference (7); cited from earlier work
[3] = tested on: hematopoietic stem and progenitor cells; experiment: Phenotypic HSCs, HSPCs and myeloid progenitors in blood, spleen and bone marrow by flow cytometry; format: in vivo, C57BL/6 mice
Experimental: (§2) Additional HIF-α potentiating agents in the form of PHD inhibitors were tested for their ability to enhance mobilization induced by G-CSF. Compound A, Compound B or Compound C, were tested in male, 7 weeks-old C57BL/6 mice. Mice were injected twice daily sub-cutaneously with rhuG-CSF at a dose of 125 μg/kg per injection for four days. Mice were gavaged with 20 mg/kg Compound A, Compound B, Compound C or vehicle control once daily for three days beginning on day 1 of the experiment.
as §1
The number of phenotypic hematopoietic stem and progenitor cells remaining in the bone marrow following treatment was measured by flow cytometry using antibodies specific for lineage markers (CD3, CD5, CD45R/B220, F4/80, Gr1, CD41, Ter119), Sca-1, Kit, CD48 and CD150. Similarly, the number of phenotypic hematopoietic stem cells mobilized into the blood and spleen were measured. Colony assays were also performed on blood and spleen to determine the number of colony forming cells per mL of blood and per spleen. All results are presented as mean f standard deviation with n=6 per groups. Levels of significance for differences were calculated using the Student's t-test.
All procedures were approved by the animal experimentation ethics committee of the University of Queensland. All experiments were performed on nine to twelve-week old C57BL/6 male mice or genetically modified mice back-crossed at least 10 times into C57BL/6. Recombinant human G-CSF (Amgen, Thousand Oaks, Calif.) was injected twice daily subcutaneously at 125 μg/kg per injection for up to 4 consecutive days. Plerixafor (AMD3100 octohydrochloride, Tocris Bioscience, Bristol, UK) was injected intraperitoneally as a single 16 mg/kg dose corresponding to 10 mg/kg of AMD3100 base. Tissues were harvested 1 h after Plerixafor administration. […] Compounds H and J were administered at 60 mg/kg and Compound K was administered at 100 mg/kg. Control mice were injected with an equivalent volume of saline. At specified time-points, mice were anesthetized with isoflurane before cardiac puncture to harvest blood. Mice were then euthanized by cervical dislocation and BM and bones harvested.
Following flushing with PBS plus 2% NCS, enriched central BM cells were pelleted at 370×g for 5 minutes at 4° C. and resuspended in CD16/CD32 hybridoma 2.4G2 supernatant to block IgGFc receptors. HSCs were stained with the biotinylated lineage antibody cocktail (CD3, CD5, B220, CD11b, Gr-1, Ter119) and biotinylated CD41 together with streptavidin (SAV)-Pacific Blue, anti-Sca-1-PECY7, anti-KIT-APC, CD48-FITC and CD150-PE as previously described (17). Data were acquired on a CyAn (Dako Cytomation) flow cytometer and analyzed following compensation with single color controls using FlowJo software (Tree Star, Ashland, Oreg.).

white blood cells = experiment: White blood cell number per mL of blood after mobilization treatment; format: in vivo, C57BL/6 mice; conditions: Example 6: 20 mg/kg + G-CSF vs vehicle + G-CSF; FIG. 11
Experimental: as §2, §1

[4] = Spleen weight after mobilization treatment; format: in vivo, C57BL/6 mice; conditions: Example 6: 20 mg/kg + G-CSF vs vehicle + G-CSF; FIG. 11
Experimental: as §2, with “Mice were gavaged with 20 mg/kg Compound A, Compound B, Compound C or vehicle control once daily for three days beginning on day 1 of the experiment.” left out
as §1

[5] = Example 6: 20 mg/kg + G-CSF vs vehicle + G-CSF, FIGS. 8A-B
[6] = Example 6: blood and spleen, 20 mg/kg + G-CSF vs vehicle + G-CSF, FIGS. 9A-B

c1cc(CN2CCCNCCNCCCNCC2)ccc1CN1CCCNCCNCCCNCC1 [Plerixafor, 1,1′-[1,4-phenylenebis(methylene)]-bis-1,4,8,11-tetra-azacyclotetradecane]
mobilization of HSPC to the spleen ([1]; 1 hr following Plerixafor treatment with or without Compound X, FIG. 1D): no significant mobilization
enhancement of CFC mobilization in response to G-CSF ([1]; Plerixafor 16 mg/kg 1 hour prior harvest + 2 days G-CSF, p<0.005): 10 fold
patients who failed with G-CSF alone who still fail to mobilize adequately (CD34+ cells; G-CSF and Plerixafor, references (8-9)): 40%
patients who previously failed to mobilize with G-CSF alone who reach the minimal threshold (CD34+ cells; Plerixafor daily 1 hr prior to aphaeresis from day 4 of G-CSF, references (8-9)): approximately 60%
time of peak mobilization post-injection [2]: 1 h

N#Cc1nc(C(=O)NCC(=O)O)c(O)c2c(Oc3ccc(Cl)cc3)cccc12 [Compound A, {[5-(4-Chloro-phenoxy)-1-cyano-4-hydroxy-isoquinoline-3-carbonyl]-amino}-acetic acid]
number of colony forming units mobilized to the blood ([1]; Example 6: 20 mg/kg + G-CSF vs vehicle + G-CSF, FIG. 10): significantly increased
mobilization of myeloid progenitors (LKS−) to the blood ([3]; Example 6: 20 mg/kg + G-CSF vs vehicle + G-CSF): did not significantly alter
increase in mobilization of myeloid progenitors (LKS−) to the spleen [3, 5]: approximately 3 fold
increase in number of HSPCs (LSK48+ and LSK) mobilized to the spleen [3, 5]: approximately 2 fold
increase in number of phenotypic HSCs (LSK48−150+) mobilized to the spleen [3, 5]: approximately 2 fold
total number of phenotypic HSPCs in the bone marrow ([3]; Example 6: 20 mg/kg once daily 3 days + rhuG-CSF 125 μg/kg twice daily 4 days vs vehicle + G-CSF, FIGS. 6A-B): did not significantly alter
increase in total number of HSPCs (LSK48+ and LSK) mobilized from the bone marrow [3, 6]: approximately 2 fold
increase in total number of myeloid progenitors (LKS−) mobilized from the bone marrow [3, 6]: approximately 6 fold
increase in total number of phenotypic HSCs (LSK48−150+) mobilized from the bone marrow [3, 6]: approximately 2 fold
number of white blood cells per mL of blood (white blood cells): significant increase
increase in spleen weight [4]: approximately 2 fold

B1: G-CSF: cytokine granulocyte colony-stimulating factor, the main mobilizing agent used in the clinic; recombinant human G-CSF (Amgen) (protein, UniProt P09919 31-207, looked up)
Granulocyte …: TPLGPASSLPQSFLLKCLEQVRKIQGDGAALQEKLVSECATYKLCHPEELVLLGHSLGIPWAPLSSCPSQALQLAGCLSQLHSGLFLYQGLLQALEGISPELGPTLDTLQLDVADFATTIWQQMEELGMAPALQPTQGAMPAFASAFQRRAGGVLVASHLQSFLEVSYRVLRHLAQP
modifications: filgrastim
chemotherapy-treated patients who fail to reach the minimal threshold of 2×10^6 CD34+ cells/kg (CD34+ cells; autologous setting, in response to G-CSF, reference (1)): 30-60%
